Assay results reported in paper PMC9781117, “New 5-Aryl-1,3,4-Thiadiazole-Based Anticancer Agents: Design, Synthesis, In Vitro Biological Evaluation and In Vivo Radioactive Tracing Studies” (Pharmaceuticals, 2022).
Values after ≈ are worked out from the molar mass of the structure shown.

Legend:
[1] = system: breast cancer MCF-7 cells; design: method as in PMID 31313595; details: cited from earlier work
[2] = system: MCF-7 breast adenocarcinoma cells; experiment: MTT cytotoxicity assay, MCF-7; type: cell-based, human; details: for IC50: Homo sapiens, MCF7, MTT, 48 h, means ± SD of three independent experiments; for SI Values MCF-7: selectivity index, MCF-7 over normal Vero cells
Experimental: (§1) The in vitro cytotoxicity of the synthesized 1,3,4-thiadiazole derivatives against breast adenocarcinoma cells (MCF-7) and human hepatocellular carcinoma (HepG2) cell lines were evaluated by the MTT assay, using 5-Fluorouracil (5-FU) as a positive control.
(§2) Human hepatocellular carcinoma (HepG2) cells and breast adenocarcinoma (MCF7) cells were purchased from the American Type Culture Collection (ATCC, USA). Under 37 °C with 5% CO2 in a humid incubator, cells were propagated using RPMI supplemented with 10% fetal bovine serum (FBS) and 1% v/v penicillin-streptomycin.
(§3) According to Tim Mosmann’s approach, an MTT assay was performed to assess the antiproliferative properties of the compounds. In short, HepG2 or MCF7 cells (0.5 × 105) were grown in flat-bottom 96-well microplates in 180 μL/well RPMI media supplemented with 10% fetal bovine serum, 2μmol/mL L-glutamine, 250 ng/mL fungizone, and 100 units/mL penicillin-streptomycin solutions at 37 °C in a CO2 incubator. Following incubation, 180 μL/well of the new serum-free medium was added to each well after the old media had been withdrawn. After that, cells were exposed to 20 μL of various concentrations of the compounds (50–0.75 μg/mL) and were incubated for 48 h at 37 °C in a humidified 5% CO2 environment. The MTT solution (20 µL/well) was added and incubated for a further 4 h. The plate was agitated at room temperature while acidified isopropanol (160 μL/well) was added to dissolve the formazan crystals. The absorbance at 570 nm was then determined photometrically using the microplate ELISA reader (FLUOstar Omega, BMG, Labtech, Germany). Graph-Pad PRISM version 6 was used to determine the IC50 for each compound.

[3] = system: HepG2 human hepatocellular carcinoma cells; experiment: MTT cytotoxicity assay, HepG2; type: cell-based; details: for IC50: Homo sapiens, MTT, 48 h, means ± SD of three independent experiments; for SI Values HepG2: selectivity index, HepG2 over normal Vero cells
Experimental: as §1, §2, §3

[4] = system: normal mammalian Vero cells; experiment: Cytotoxicity against normal Vero cells; type: cell-based; details: Chlorocebus sabaeus
MCF-7 cells [5] = experiment: AO/EB fluorescent stain, apoptotic and necrotic cells, MCF-7; type: cell-based, human; details: MCF-7, IC50 concentration, 48 h, vs untreated control cells
Experimental: (§4) Morphologically, there are three different modes of cell death: apoptosis, autophagy, and necrosis (types I, II, and III, respectively).
(§5) Fluorescence labeling with acridine orange/ethidium bromide (AO/EB) was used to determine the ratio between apoptosis and necrosis to evaluate the mode of cell death. HepG2 and MCF-7 cells were seeded in six-well plates with DMEM media supplemented with 10% FBS and allowed to settle overnight at 37 °C with 5% CO2 in a humidified incubator. […] 5-FU was used as a positive standard for both cell lines. After incubation, cells were collected by trypsinization and stained using a dye solution of AO and EB in PBS (1:1) for 20 min. The cells were examined using fluorescence microscopy. Each sample had at least 500 counted cells, and the percentage of apoptotic or necrotic cells was determined by […] the number of apoptotic or necrotic cells by the total number of cells counted by 100. The experiment was performed three times in triplicate.

MCF-7 cells [6] = experiment: Annexin V-FITC/PI flow cytometric apoptosis analysis, MCF-7; type: cell-based, human; details: MCF-7, IC50 concentration, 48 h
Source text: (§6) Propidium iodide (PI) and annexin-V-FITC were used in a flow cytometric investigation on HepG2 and MCF-7 cells to better understand the manner of cell death caused by 4e and 4i, respectively. […] Apoptosis evasion is one of the hallmarks of cancer progression because the loss of apoptosis control prolongs cancer cell survival and allows for the accumulation of mutations that can promote angiogenesis and cell proliferation, disrupt differentiation, and increase invasiveness throughout tumor progression, thus one of the key purposes of apoptosis is to prevent cancer.
(§7) The apoptotic activity of compounds 4e and 4i was measured using the annexin V fluorescein isothiocyanate (FITC)/propidium iodide (PI) apoptosis detection kit (BioVision, USA, Catalog #: K101-25) following the manufacturer’s instructions. […] Cells were collected by trypsinization, washed twice using PBS and then 1 × 10^5 cells were resuspended in PBS and stained for 15 min at room temperature in the dark with 5 µL Annexin V-FITC and 5 µL PI in 1x binding buffer. Annexin V-FITC binding was analyzed by a BD FACS Calibur flow cytometry (Ex = 488 nm; Em = 530 nm) using a FITC signal detector (FL1) and PI staining by the phycoerythrin emission signal detector (FL2).

MCF-7 cells [7] = experiment: Cell cycle analysis by flow cytometry (PI), MCF-7; type: cell-based, human; details: MCF-7, IC50 concentration, 48 h, vs control, p < 0.05
Experimental: (§8) The cell cycle is made up of several intricately linked processes that enable the cell to develop and multiply. In cancer, the genetic and epigenetic abnormalities in the cell cycle-related genes result in an unchecked proliferation of mutated cells and alteration of cell cycle progression. For further investigation of the inhibitory effects of 4e and 4i compounds on the proliferation of HepG2 and MCF-7 cells, respectively, we examined the cell cycle distribution and DNA content after 48 h of the treatment. […] Consequently, the arrest in the G2/M phase mediates apoptosis via a mitochondrial apoptotic pathway.
(§9) Immediately after incubation, trypsinization was used to collect the cells, which were then washed twice with ice-cold PBS before being fixed in 70% (v/v) ethanol at […], re-suspended with 0.1 mg/mL RNase, stained with […] propidium iodide (PI), and incubated for 1 h. The DNA contents of the cells were then analyzed by flow cytometry using an FL2 (λex/em 493/636 nm) signal detector (Abcam, UK, ab139418).

[8] = system: Bax/Bcl-2 ratio in MCF-7 cells; experiment: ELISA Bax/Bcl-2 ratio, MCF-7; type: cell-based, human; details: MCF-7, IC50, 48 h, compared to control and 5-FU treated cells
Source text: (§10) The overexpression of antiapoptotic proteins, such as Bcl-2, and the underexpression of proapoptotic proteins, such as Bax, are two common ways that the apoptotic pathway is suppressed in cancer. […] Therefore, a rise in Bax expression and a decrease in Bcl-2 can trigger the apoptotic process and eradicate cancer cells. […] This in turn activates the intrinsic pathway of apoptosis; thus, we next examined their effect on caspase 9 levels. Caspases (cysteine aspartyl-specific proteases), a class of cysteine proteins that cleave target proteins, play a role in executing apoptosis. […] Moreover, we evaluated the effect of the two compounds on the vascular endothelial growth factor VEGF expression. VEGF is one of the pro-angiogenic proteins; upon binding to VEGF receptors in the endothelial cells, it activates phosphorylation, causing increased angiogenesis and resulting in abnormal vasculature in the tumor tissue.
(§11) The protein levels of Bax, Bcl2, caspase 9, and VGEF were estimated using an ELISA assay. […] Cells from each group were scraped off and washed with PBS and then cell pellets were collected from each flask. […] The supernatants were then used for ELISA assays in accordance with the manufacturer’s instructions for the ELISA kits (Sunlong Biotech, China), and absorbance and calculations were carried out using an ELISA reader (FLUOstar Omega, BMG, Labtech, Germany).

caspase 9 in MCF-7 cells = experiment: ELISA caspase 9 level, MCF-7; type: cell-based, human; details: MCF-7, IC50, 48 h
Source text: as §10, §11

VEGF in MCF-7 cells = experiment: ELISA VEGF level, MCF-7; type: cell-based, human; details: MCF-7, IC50, 48 h, compared to control and 5-FU treated cells
Source text: as §10, §11

HepG2 cells [9] = experiment: AO/EB fluorescent stain, apoptotic and necrotic cells, HepG2; type: cell-based, human; details: HepG2, IC50 concentration, 48 h, vs untreated control cells
Experimental: as §4, §5

HepG2 cells [10] = experiment: Annexin V-FITC/PI flow cytometric apoptosis analysis, HepG2; type: cell-based, human; details: HepG2, IC50 concentration, 48 h
Source text: as §6, §7

HepG2 cells [11] = experiment: Cell cycle analysis by flow cytometry (PI), HepG2; type: cell-based, human; details: HepG2, IC50 concentration, 48 h, vs control
Experimental: as §8, §9

[12] = system: Bax/Bcl-2 ratio in HepG2 cells; experiment: ELISA Bax/Bcl-2 ratio, HepG2; type: cell-based, human; details: HepG2, IC50, 48 h, compared to control and 5-FU treated cells
Source text: as §10, §11

caspase 9 in HepG2 cells = experiment: ELISA caspase 9 level, HepG2; type: cell-based, human; details: HepG2, IC50, 48 h
Source text: as §10, §11

VEGF in HepG2 cells = experiment: ELISA VEGF level, HepG2; type: cell-based, human; details: HepG2, IC50, 48 h, compared to control and 5-FU treated cells
Source text: as §10, §11

lung A549 cancer cells = system: lung A549 cancer cells; design: method as in PMID 31313595; details: cited from earlier work
[13] = system: cervical HeLa cancer cells; design: method as in PMID 31313595; details: cited from earlier work

SMILES: CCN1CCN(CC(=O)Nc2nc(C(C)(C)C)c(Cc3ccc(Cl)cc3)s2)CC1 [VI]
- IC50 [1]: 12.5 µM

SMILES: O=C(CN1CCC(Cc2ccccc2)CC1)Nc1nnc(-c2ccc(Cl)cc2)s1 [Compound 4i, 2-(4-Benzylpiperidin-1-yl)-N-(5-(4-Chlorophenyl)-1,3,4-Thiadiazol-2-yl)Acetamide]
- IC50 [2]: 2.32 ± 0.21 µg/mL (≈ 5.43 µM)
- SI Values MCF-7 [2]: 36.70
- IC50 ([3]; HepG2): 6.51 ± 0.03 µg/mL (≈ 15.2 µM)
- SI Values HepG2 [3]: 13.10
- IC50 [4]: 85.29 ± 0.52 µg/mL (≈ 200 µM)
- apoptosis and necrosis (AO/EB stain) (MCF-7 cells [5]): significantly enhanced apoptosis and necrosis
- main mode of cell death (annexin-V/PI) (MCF-7 cells [6]): apoptosis
- total cell death (annexin-V/PI) (MCF-7 cells [6]; vs untreated cells): induced significant total cell death
- cell cycle arrest (MCF-7 cells [7]): induced a significant cell growth arrest for MCF-7 cells at the G2/M phase
- Bax/Bcl-2 ratio [8]: significant increase
- caspase 9 level (caspase 9 in MCF-7 cells): significantly enhanced
- VEGF level (VEGF in MCF-7 cells): significantly suppressed

SMILES: CCOc1ccccc1N1CCN(CC(=O)Nc2nnc(-c3ccc(Cl)cc3)s2)CC1 [Compound 4e, N-(5-(4-Chlorophenyl)-1,3,4-Thiadiazol-2-yl)-2-(4-(2-Ethoxyphenyl)Piperazin-1-yl)Acetamide]
- IC50 [2]: 5.36 ± 0.36 µg/mL (≈ 11.7 µM)
- SI Values MCF-7 [2]: 28.79
- fold increase in efficacy relative to parent analogue ([3]; HepG2, 4b vs 4a, 4e vs 4f): 12 fold
- IC50 ([3]; HepG2): 3.13 ± 0.2 µg/mL (≈ 6.83 µM)
- SI Values HepG2 [3]: 49.20
- IC50 [4]: 154 ± 32.2 µg/mL (≈ 337 µM)
- apoptosis and necrosis (AO/EB stain) (HepG2 cells [9]): significantly enhanced apoptosis and necrosis
- main mode of cell death (annexin-V/PI) (HepG2 cells [10]): apoptosis
- total cell death (annexin-V/PI) (HepG2 cells [10]; vs untreated cells): induced significant total cell death
- cell cycle arrest (HepG2 cells [11]): significantly arrested HepG2 cells in the S phase
- Bax/Bcl-2 ratio [12]: significant increase
- caspase 9 level (caspase 9 in HepG2 cells): significantly enhanced
- VEGF level (VEGF in HepG2 cells): significantly suppressed

SMILES: CC(C)(C)c1nc(NC(=O)CN2CCN(c3ccccc3)CC2)sc1Cc1ccc(Cl)cc1 [VII]
- IC50 (lung A549 cancer cells): 0.2 µM
- IC50 [13]: 4.2 µM
